Assay results from patent US20220257552A1, “METHODS OF PRESCREENING AND TREATING BREAST CANCERS WITH SELECTIVE ANDROGEN RECEPTOR MODULATORS” (priority 2021, published 2022).

Columns and labels:
[1] = test system: breast cancer specimens obtained from patients; test: Breast cancer patient specimens, ex vivo sponge culture; assay type: cell-based, human; conditions: 1 μM Formula IX, 100 nM fulvestrant, 3 days
Procedure: Specimens from breast cancer patients were collected with patient consent under a protocol approved by the UTHSC Institutional Review Board (IRB). Specimens were collected immediately after surgery in RPMI medium containing penicillin:streptomycin and Fungizone and transported to the laboratory on ice. The tissues were finely minced and treated with collagenase for 2 hours.
(§1) HCI-13 tumors grown in female mice were allowed to reach 500-1000 mm^3 before the animals were sacrificed and the tumors were excised to be used for sponge culture. Patient specimens frozen in liquid nitrogen in freezing medium were used for sponge culture. […] Tumors were sliced into small pieces (˜1 mm^3) and incubated on pre-soaked gelatin sponges (5 fragments/sponge) in 12 well plates containing 1.5 mL medium (MEM+10% FBS+2 mM L-glutamine+10 μg/mL insulin+10 μg/mL hydrocortisone+penicillin:streptomycin). The cultures were performed in triplicates for HCI-13 and singly for patient specimens. Pooled samples (n=5/sponge) from each sponge constituted one sample. Tissues were harvested after 3 days of treatment, RNA extracted, and expression of various genes measured. Although the same procedure was adopted for specimens obtained from breast cancer patients, the specimens were cultured singly (n=5/sponge=one sample) and not in triplicates as performed for HCI-13.
Like other cancers, breast cancer is also heterogeneous in its genomic profile as well as in its response to treatments. […] Three days after treatment, RNA was isolated from the tissues and expression of ER- and AR-target genes was measured.

[2] = test system: metastatic ER+/HER2- breast cancer; conditions: cited from earlier work
[3] = target: Wildtype ER-α (Homo sapiens, UniProt P03372); conditions: 10 nM fulvestrant or 1 μM tamoxifen with 0.1 nM estradiol
Procedure: (§2) After 6 days of treatment, cells were harvested, and the number of cells was counted. […] Medium was changed after 3 days and re-treated. Cells were fixed after 6 days of treatment and the cell viability was measured by SRB assay. […] Medium was changed, and the cells were re-treated on days 4 and 7. Medium was collected, pooled from triplicates, and stored in −80° C. After 10 days of treatment, cells were fixed, and cell viability was measured using SRB. MCF-7 cells stably transfected with GFP (MCF-7-GFP) were plated in growth medium. Twenty-four hours after plating, cells were fed with the conditioned medium obtained from patient-derived fibroblasts as indicated above. Cells were fed for 10 days with conditioned medium, with medium changed on days 4 and 7. After 10 days of treatment, cells were fixed, and the viability was measured by SRB assay. […] AR-positive, but ER-negative HCI-9 PDX was surgically implanted as 1 mm^3 fragments under the mammary fat pad in NSG mice (n=8-10/group). […] Tumor volume was measured thrice weekly. […] ER-α from HCI-13 was cloned into pCR3.1 vector. Wildtype ER-α and HCI-13 ER-α, ERE-LUC, and CMV-LUC were transfected into COS-1 cells using lipofectamine. […] Twenty four hours after treatment cells were harvested and luciferase assay was performed. […] Values are expressed as average±S.E. from n=3-4/data point.

[4] = target: HCI-13 ER-α (Homo sapiens, UniProt P03372, Y537S); conditions: 10 nM fulvestrant or 1 μM tamoxifen with 0.1 nM estradiol
Procedure: as §2

[5] = test system: HCI-13 tumor fragments; test: HCI-13 ex vivo sponge culture, real time PCR; assay type: cell-based; conditions: 10 nM DHT, 1 μM Formula IX, 100 nM fulvestrant, 3 days
Procedure: as §1

[6] = test system: TNBC; conditions: plus chemotherapy arm; cited from earlier work
[7] = test system: HCI-9 PDX; test: HCI-9 patient-derived xenograft in NSG mice; assay type: in vivo; conditions: Formula IX 10 mpk, enzalutamide 30 mpk p.o.
Procedure: (§3) All animal protocols were approved by The University of Tennessee Health Science Center (UTHSC) Institutional Animal Care and Use Research Committee. Xenograft experiments were performed as previously published (Narayanan et al. (2014) PLoS One 9, e103202). Briefly, 3 million MCF-7 cells were suspended in 0.05 ml MEM+10% FBS and 0.05 ml Matrigel/nude mouse and were injected subcutaneously. Once the tumor size reached 100-200 mm^3, the animals were randomized and treated orally with the indicated drugs formulated in DMSO:PEG-300 (15:85). HCI-7, HCI-9, and HCI-13 PDXs were gifts kindly donated by Dr. Alana Welm (Huntsman Cancer Institute, Salt Lake City, Utah). HCI PDX tumor fragments (1 mm^3) were surgically implanted under the mammary fat pad in female NOD SCID Gamma (NSG) mice. Tumor volume was measured twice weekly for MCF-7 xenograft and once or twice weekly for HCI PDXs. At the end of the study, animals were sacrificed and tumors were excised, weighed, and stored for various analyses.
To determine if the same effect is observed in an AR-positive, but ER-negative breast cancer, HCI-9 tumor fragments were implanted under the mammary fat pad of NSG mice.

[8] = test system: MCF-7-GFP cells; assay type: cell-based, human; conditions: 10 days
From the text: Tumor microenvironment contains tumor epithelial cells, stromal cells, cancer-associated fibroblasts (CAFs), and endothelial cells. The collective function of these cells promotes the aggressive growth of tumors due to secretion of paracrine factors. The CAFs are important for the sustained growth of cancers, and they differ from normal fibroblasts in their capacity to secrete factors that promote proliferation of cancer cells. […] Medium was collected over a period of 10 days and pooled. CAFs were stained with SRB to evaluate the effect of AR ligands on proliferation.
Conditioned medium was replaced on days 4 and 7 and the cells were stained with SRB to measure viability.

[9] = test system: HCI-7 PDX; test: HCI-7 (HCI-007) patient-derived xenograft in NSG mice; assay type: in vivo; conditions: Formula IX 10 mg/kg, enzalutamide 20 mg/kg, orally, vs vehicle
Procedure: HCI-007 tumor pieces (1 mm^3) were implanted surgically (one per mouse) under the skin on the flanks of NSG mice. Simultaneously, 17β-estradiol pellet (Innovative Research of America) was implanted surgically under the skin of each mouse. Tumors were allowed to grow and reach approximately 100 mm^3 volume (1*W*W*0.526). […] Tumor volume was measured weekly and represented as % change in tumor volume (FIG. 32). Mice were sacrificed and tumors stored for further analysis.
as §3
From the several PDXs available, three AR-positive PDXs were identified, based on gene expression profile. […] The enzalutamide dose was selected based on previous published experiments (Park et al. (2016) Cancer Invest 34, 517-520; Pollock et al. (2016) Nat Chem Biol 12, 795-801) as well as from internal experiments conducted in prostate cancer xenografts and in Hershberger studies.

[10] = test system: BR-0001 TNBC; test: BR-0001 AR-positive TNBC xenograft in NSG mice; assay type: in vivo; conditions: 10 mg/kg/day Formula IX or enzalutamide orally
Procedure: Xenograft experiment. NSG mice obtained from JAX labs were housed with five animals per cage and were allowed free access to tap water and commercial rat chow (Harlan Teklad 22/5 rodent diet—8640). During the course of the study, the animals were maintained on a 12 hr light:dark cycle. Animals were anesthetized and BR-0001 TNBC fragments of 1 mm^3 (approximately) were implanted subcutaneously in NSG mice. […] Tumor volume was measured thrice weekly. Tumor volume was calculated using the formula length×width×width×0.5236. Once tumors reached greater than 1500-2000 mm^3, animals were sacrificed and tumors weighted and stored for various analysis. Two regions of the same BR-0001 tumor, an AR-positive TNBC xenograft, were immunohistochemically stained with AR antibody (AR N20 from SCBT) (FIGS. 26A and 26B) and compared to an AR-negative (FIG. 26C) TNBC as a negative control. […] The tumor xenograft efficacy experimental results are provided in 27A-27C, with FIGS. 27A and 27B being replicate experiments.
Tumors from replicate experiment 2 (FIG. 27B) were fixed in formalin and paraffin embedded. Slides were cut and stained with Ki-67 antibody. Ki-67 positive cells (total 200 cells were counted in each slide) in each slide were counted and represented as % stained cells, as shown in FIG. 28B.

[11] = test system: TNBC; conditions: with nab-paclitaxel; cited from earlier work

HCI-13 ER-α, sequence (P03372 whole entry Y537S): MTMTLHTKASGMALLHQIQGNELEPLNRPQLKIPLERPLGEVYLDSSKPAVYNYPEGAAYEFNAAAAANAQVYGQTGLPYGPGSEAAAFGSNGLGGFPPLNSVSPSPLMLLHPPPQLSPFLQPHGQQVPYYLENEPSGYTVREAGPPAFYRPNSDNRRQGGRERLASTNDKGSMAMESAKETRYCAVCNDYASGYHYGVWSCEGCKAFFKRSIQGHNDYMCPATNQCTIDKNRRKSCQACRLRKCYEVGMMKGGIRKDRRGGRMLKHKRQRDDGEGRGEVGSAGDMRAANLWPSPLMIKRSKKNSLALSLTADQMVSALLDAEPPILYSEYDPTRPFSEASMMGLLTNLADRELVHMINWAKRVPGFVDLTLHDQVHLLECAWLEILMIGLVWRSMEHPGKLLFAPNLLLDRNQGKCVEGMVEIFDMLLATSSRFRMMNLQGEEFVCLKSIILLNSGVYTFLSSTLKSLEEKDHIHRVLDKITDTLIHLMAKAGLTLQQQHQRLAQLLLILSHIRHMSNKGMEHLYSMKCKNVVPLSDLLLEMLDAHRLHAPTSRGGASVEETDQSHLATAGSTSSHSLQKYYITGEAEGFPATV
Wildtype ER-α, sequence (P03372 whole entry, species assumed): as the sequence (P03372 whole entry Y537S) above, with S537Y counted along it

Compound: C[C@]12CC[C@@H]3c4ccc(O)cc4C[C@@H](CCCCCCCCC[S+]([O-])CCCC(F)(F)C(F)(F)F)[C@H]3[C@@H]1CC[C@@H]2O (stereo partly shown) [fulvestrant]
- specimens in which ER function was inhibited [1]: 4 of 8
- median PFS range ([2]; after failing one estrogen blocking therapy): 4.6-9.3 months
- objective response rate ([2]; depending on the trial): 10.9%-21.3%
- ER activity [3]: inhibited
- ER activity [4]: not inhibited
- inhibition of ER-induced pS2 and PR gene expression [5]: ineffective

Compound: pembrolizumab: PD-L1 blocking antibody
- median PFS [6]: 9.7 months

Compound: CNC(=O)c1ccc(N2C(=S)N(c3ccc(C#N)c(C(F)(F)F)c3)C(=O)C2(C)C)cc1F [enzalutamide, reference compound]
- tumor growth trajectory [7]: Neither Formula IX nor enzalutamide altered the growth trajectory
- proliferation of breast cancer CAFs ([8]; 10 nM DHT, 1 μM Formula IX, 1 μM enzalutamide): neither AR agonist, DHT and Formula IX, nor AR antagonist enzalutamide, affected the proliferation
- proliferation of MCF-7-GFP cells fed conditioned medium from treated CAFs [8]: not
- tumor growth (% change in tumor volume) [9]: grew comparably
- tumor growth [10]: indistinguishable from vehicle treatment

Compound: atezolizumab: PD-L1 blocking antibody
- Median progression-free survival (PFS) [11]: 7.4 months
